Data taken from PubChem BioAssay AID248 (DTP/NCI, 2004).
Where “and” joins values, the source holds several entries; their conditions need not be identical. Equal values may be shown once. Toxic doses and inconclusive results are not listed. Rule as the data show it: active = T/C of 150% or more; inactive = T/C below 125%.

System: L1210 leukemia ip in BDF1 mice, survival T/C
Experiment: NCI In Vivo Anticancer Drug Screen. Data for tumor model L1210 Leukemia (intraperitoneal) in B6D2F1 (BDF1) mice
Details: endpoint: mean survival time, higher = longer survival
Method in brief: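 Each compound was tested against a transplantable tumor grown in mice. The endpoint was survival, with treated animals benchmarked against vehicle controls as a simple ratio.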

[1] = dose: 50.0 mg/kg/injection, schedule: Q01DX001 (ip), vehicle: Klucel (hydroxypropylcellulose) (HPC)
[2] = dose: 100.0 mg/kg/injection, schedule: Q01DX001 (ip), vehicle: Klucel (hydroxypropylcellulose) (HPC)
[3] = dose: 200.0 mg/kg/injection, schedule: Q01DX001 (ip), vehicle: Klucel (hydroxypropylcellulose) (HPC)
[4] = dose: 100.0 mg/kg/injection, schedule: Q01DX009 (ip), vehicle: saline with Tween-80
[5] = dose: 200.0 mg/kg/injection, schedule: Q01DX009 (ip), vehicle: saline with Tween-80
[6] = dose: 100.0 mg/kg/injection, schedule: Q01DX009 (ip), vehicle: saline
[7] = dose: 100.0 mg/kg/injection, schedule: Q04DX003 (ip), vehicle: saline
[8] = dose: 200.0 mg/kg/injection, schedule: Q01DX009 (ip), vehicle: saline
[9] = dose: 200.0 mg/kg/injection, schedule: Q04DX003 (ip), vehicle: saline
[10] = dose: 400.0 mg/kg/injection, schedule: Q01DX009 (ip), vehicle: saline
[11] = dose: 400.0 mg/kg/injection, schedule: Q04DX003 (ip), vehicle: saline
[12] = dose: 400.0 mg/kg/injection, schedule: Q01DX009 (ip), vehicle: saline with Tween-80
[13] = dose: 100.0 mg/kg/injection, schedule: Q01DX001 (ip), vehicle: saline
[14] = dose: 200.0 mg/kg/injection, schedule: Q01DX001 (ip), vehicle: saline
[15] = dose: 400.0 mg/kg/injection, schedule: Q01DX001 (ip), vehicle: saline
[16] = dose: 100.0 mg/kg/injection, schedule: Q01DX009 (ip), vehicle: Klucel (hydroxypropylcellulose) (HPC)
[17] = dose: 200.0 mg/kg/injection, schedule: Q01DX009 (ip), vehicle: Klucel (hydroxypropylcellulose) (HPC)
[18] = dose: 400.0 mg/kg/injection, schedule: Q01DX009 (ip), vehicle: Klucel (hydroxypropylcellulose) (HPC)

Measured: T/C

CC(CCC(=O)O)(c1cc(Cl)c(O)c(Cl)c1)c1cc(Cl)c(O)c(Cl)c1
inactive: dose: 100.0 mg/kg/injection, schedule: Q01DX009 (ip), vehicle: gum acacia 95 % of control | dose: 100.0 mg/kg/injection, schedule: Q04DX003 (ip), vehicle: gum acacia 100 % of control | dose: 200.0 mg/kg/injection, schedule: Q01DX009 (ip), vehicle: gum acacia 103 % of control | dose: 200.0 mg/kg/injection, schedule: Q04DX003 (ip), vehicle: gum acacia 92 % of control | dose: 400.0 mg/kg/injection, schedule: Q04DX003 (ip), vehicle: gum acacia 96 % of control

CCCCCCC(=O)CCC(=O)CCCCCCCC(=O)O
inactive: [1] 103 % of control | [2] 89 % of control | [3] 100 % of control

CCCC(=O)OCC1OC(n2cc(C)c(=O)[nH]c2=O)CC1OC(=O)CCC (centres undefined)
inactive: dose: 100.0 mg/kg/injection, schedule: Q01DX001 (ip), vehicle: carboxymethylcellulose (CMC) 104 % of control | dose: 200.0 mg/kg/injection, schedule: Q01DX001 (ip), vehicle: carboxymethylcellulose (CMC) 93 % of control

CN1CCCN(CCOC(c2ccccc2)c2ccccc2)CC1
inactive: dose: 55.0 mg/kg/injection, schedule: Q01DX Z (ip), vehicle: methylcellulose (MC) 93 % of control | dose: 83.0 mg/kg/injection, schedule: Q01DX Z (ip), vehicle: methylcellulose (MC) 92 % of control

CN(C1=CC(=O)C(=O)c2ccccc21)c1ccccc1
inactive: [1] 95 % of control | [2] 97 % of control | [3] 97 % of control

COc1cccc(C2CCN(C)C2)c1 (centres undefined)
inactive: dose: 6.25 mg/kg/injection, schedule: Q01DX009 (ip), vehicle: Klucel (hydroxypropylcellulose) (HPC) 110 % of control | dose: 12.5 mg/kg/injection, schedule: Q01DX009 (ip), vehicle: Klucel (hydroxypropylcellulose) (HPC) 108 % of control | dose: 25.0 mg/kg/injection, schedule: Q01DX009 (ip), vehicle: Klucel (hydroxypropylcellulose) (HPC) 103 % of control | dose: 100.0 mg/kg/injection, schedule: Q04DX003 (ip), vehicle: Klucel (hydroxypropylcellulose) (HPC) 105 % of control | dose: 200.0 mg/kg/injection, schedule: Q04DX003 (ip), vehicle: Klucel (hydroxypropylcellulose) (HPC) 103 % of control

CC1(C)C2(C(N)=O)C(=O)NC(=O)C12C(=O)O (centres undefined)
inactive: dose: 200.0 mg/kg/injection, schedule: Q04DX002 (ip), vehicle: saline with Tween-80 92 % of control

CCCNC(=O)Nc1ccc(C(=O)OCC(C)C)cc1
inactive: [4] 95 % of control | [5] 93 % of control

ClCc1ccccn1
inactive: [6] 92 % of control | [7] 98 % of control | [8] 95 % of control | [9] 101 % of control | [10] 89 % of control | [11] 94 % of control

OCCOc1ccc(Cl)cc1
inactive: [4] 98 % of control | [5] 110 % of control | [12] 102 % of control

Cc1ccc(C[N+](C)(C)C)cc1
inactive: dose: 9.38 mg/kg/injection, schedule: Q01DX001 (ip), vehicle: saline 103 % of control | dose: 18.75 mg/kg/injection, schedule: Q01DX001 (ip), vehicle: saline 100 % of control | dose: 37.5 mg/kg/injection, schedule: Q01DX001 (ip), vehicle: saline 100 % of control

C1CCC(C2CCCC(C3CCCC[N-]3)[N-]2)[N-]C1.[Cl][Pt] (centres undefined)
inactive: dose: 12.5 mg/kg/injection, schedule: Q01DX009 (ip), vehicle: saline 102 % of control | dose: 25.0 mg/kg/injection, schedule: Q01DX009 (ip), vehicle: saline 98 % of control | dose: 50.0 mg/kg/injection, schedule: Q01DX009 (ip), vehicle: saline 104 % of control and 106 % of control

CC1(C)N=C(N)N=C(N)N1c1ccc(OCCOc2ccc(S(=O)(=O)F)cc2)cc1
inactive: dose: 100.0 mg/kg/injection, schedule: Q01DX001 (ip), vehicle: gum acacia 101 % of control | dose: 200.0 mg/kg/injection, schedule: Q01DX001 (ip), vehicle: gum acacia 98 % of control | dose: 400.0 mg/kg/injection, schedule: Q01DX001 (ip), vehicle: gum acacia 103 % of control

CCOC(=O)c1ccc(NC(=S)NC(=O)c2ccc(Cl)cc2Cl)cc1
inactive: [5] 88 % of control | [12] 88 % of control

OC(c1ccccc1)C1(O)CC2CCC1C2 (centres undefined)
inactive: dose: 6.25 mg/kg/injection, schedule: Q01DX001 (ip), vehicle: saline 96 % of control | dose: 125.0 mg/kg/injection, schedule: Q01DX001 (ip), vehicle: saline 100 % of control | dose: 250.0 mg/kg/injection, schedule: Q01DX001 (ip), vehicle: saline 98 % of control

CCOC(O)(C=O)C1CCCN1 (centres undefined)
inactive: [13] 100 % of control | [6] 104 % of control | [14] 97 % of control | [8] 101 % of control | [15] 97 % of control | [10] 95 % of control

CC(=O)OC1C(=O)C(C)(C)CSCC1(C)C (centres undefined)
inactive: [16] 103 % of control | [17] 103 % of control | [18] 105 % of control

CC(=O)c1cc(-c2ccc(Cl)c(Cl)c2)nc2c(Cl)cc(Cl)cc12
inactive: [13] 104 % of control | [14] 103 % of control | [15] 103 % of control

CCOC(=O)C(C(=O)O)(C(c1ccccc1)c1ccccc1)C(c1ccccc1)c1ccccc1
inactive: dose: 75.0 mg/kg/injection, schedule: Q01DX001 (ip), vehicle: carboxymethylcellulose (CMC) 90 % of control

C#CCCOC(=O)Nc1ccccc1
inactive: [16] 96 % of control | [17] 96 % of control | [18] 102 % of control

CC(=O)OC1CCC2(C)C(CCC3(C)C2CC=C2C4=C(CCC(C)(C)C4=O)CCC23C)C1(C)C (centres undefined)
inactive: [7] 102 % of control | [9] 100 % of control | [11] 92 % of control

CCOC(=O)CN=CC1CCC=CO1 (centres undefined)
inactive: [4] 97 % of control | dose: 100.0 mg/kg/injection, schedule: Q04DX003 (ip), vehicle: saline with Tween-80 93 % of control | [5] 103 % of control | dose: 200.0 mg/kg/injection, schedule: Q04DX003 (ip), vehicle: saline with Tween-80 95 % of control | [12] 108 % of control | dose: 400.0 mg/kg/injection, schedule: Q04DX003 (ip), vehicle: saline with Tween-80 93 % of control

CCCCNC(=O)Oc1ccc(C(=O)OCCC)cc1
inactive: dose: 50.0 mg/kg/injection, schedule: Q01DX009 (ip), vehicle: saline with Tween-80 102 % of control and 106 % of control | dose: 100.0 mg/kg/injection, schedule: Q01DX009 (ip), vehicle: other 110 % of control and 86 % of control | [4] 103 % of control and 104 % of control | dose: 100.0 mg/kg/injection, schedule: Q04DX002 (ip), vehicle: other 100 % of control and 101 % of control | dose: 200.0 mg/kg/injection, schedule: Q01DX009 (ip), vehicle: other 89 % of control | [5] 96 % of control and 103 % of control | dose: 200.0 mg/kg/injection, schedule: Q04DX002 (ip), vehicle: other 93 % of control and 105 % of control | dose: 400.0 mg/kg/injection, schedule: Q01DX009 (ip), vehicle: other 93 % of control and 90 % of control | dose: 400.0 mg/kg/injection, schedule: Q04DX002 (ip), vehicle: other 96 % of control and 92 % of control

CC1=NNC(=O)CC1
inactive: [7] 102 % of control | [9] 104 % of control | [11] 96 % of control

CCCCC(=O)c1ccc(C)cc1
inactive: [13] 102 % of control | [14] 98 % of control | [15] 96 % of control

Nc1ccc2oc3cccc(N)c3c(=O)c2c1
inactive: [13] 94 % of control | [14] 96 % of control | [15] 96 % of control
